For 1 compound, inhibition and remaining activity results are on record in US9492471B2, “Methods of treating a disease or disorder associated with Bruton'S Tyrosine Kinase” (Celgene Avilomics Research, Inc., priority 2013, dated 2016).

Common to all, as to assay: HotSpot kinase profiling
Common to all, as to assay type: biochemical

Assay [1] concerns the target T1, NEK6 (Homo sapiens, UniProt Q9HC98).
T1 construct: purchased Reaction Biology Corp
The procedure, abridged: (§1)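 Radio-isotope P81 filtration format. Substrate + required cofactors in reaction buffer, kinase added, 2 h RT. Stop, wash with 0.1% phosphoric acid, detect. % inhibition vs DMSO; mean of duplicates where repeated.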

Assay [2] addresses T2, IGF1R (Homo sapiens, UniProt P08069).
T2 construct: purchased Reaction Biology Corp
A digest of the protocol:
as §1

For assay [3], the target named is T3, TAK1 (Homo sapiens, UniProt O43318).
T3 construct: purchased Reaction Biology Corp
T3 sequence (O43318 1-303 limits assumed): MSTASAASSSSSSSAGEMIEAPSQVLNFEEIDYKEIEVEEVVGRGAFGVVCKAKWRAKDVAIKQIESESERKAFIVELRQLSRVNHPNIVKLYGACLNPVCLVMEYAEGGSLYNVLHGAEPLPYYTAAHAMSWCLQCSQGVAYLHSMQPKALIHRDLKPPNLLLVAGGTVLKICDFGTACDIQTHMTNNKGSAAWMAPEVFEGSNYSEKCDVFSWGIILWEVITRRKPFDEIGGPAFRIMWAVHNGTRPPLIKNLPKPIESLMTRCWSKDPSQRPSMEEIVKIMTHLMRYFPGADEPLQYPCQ
The procedure, abridged:
as §1

The target in assay [4] is T4, MYO3b (Homo sapiens, UniProt Q8WXR4).
T4 construct: purchased Reaction Biology Corp
T4 sequence (Q8WXR4 1-1341): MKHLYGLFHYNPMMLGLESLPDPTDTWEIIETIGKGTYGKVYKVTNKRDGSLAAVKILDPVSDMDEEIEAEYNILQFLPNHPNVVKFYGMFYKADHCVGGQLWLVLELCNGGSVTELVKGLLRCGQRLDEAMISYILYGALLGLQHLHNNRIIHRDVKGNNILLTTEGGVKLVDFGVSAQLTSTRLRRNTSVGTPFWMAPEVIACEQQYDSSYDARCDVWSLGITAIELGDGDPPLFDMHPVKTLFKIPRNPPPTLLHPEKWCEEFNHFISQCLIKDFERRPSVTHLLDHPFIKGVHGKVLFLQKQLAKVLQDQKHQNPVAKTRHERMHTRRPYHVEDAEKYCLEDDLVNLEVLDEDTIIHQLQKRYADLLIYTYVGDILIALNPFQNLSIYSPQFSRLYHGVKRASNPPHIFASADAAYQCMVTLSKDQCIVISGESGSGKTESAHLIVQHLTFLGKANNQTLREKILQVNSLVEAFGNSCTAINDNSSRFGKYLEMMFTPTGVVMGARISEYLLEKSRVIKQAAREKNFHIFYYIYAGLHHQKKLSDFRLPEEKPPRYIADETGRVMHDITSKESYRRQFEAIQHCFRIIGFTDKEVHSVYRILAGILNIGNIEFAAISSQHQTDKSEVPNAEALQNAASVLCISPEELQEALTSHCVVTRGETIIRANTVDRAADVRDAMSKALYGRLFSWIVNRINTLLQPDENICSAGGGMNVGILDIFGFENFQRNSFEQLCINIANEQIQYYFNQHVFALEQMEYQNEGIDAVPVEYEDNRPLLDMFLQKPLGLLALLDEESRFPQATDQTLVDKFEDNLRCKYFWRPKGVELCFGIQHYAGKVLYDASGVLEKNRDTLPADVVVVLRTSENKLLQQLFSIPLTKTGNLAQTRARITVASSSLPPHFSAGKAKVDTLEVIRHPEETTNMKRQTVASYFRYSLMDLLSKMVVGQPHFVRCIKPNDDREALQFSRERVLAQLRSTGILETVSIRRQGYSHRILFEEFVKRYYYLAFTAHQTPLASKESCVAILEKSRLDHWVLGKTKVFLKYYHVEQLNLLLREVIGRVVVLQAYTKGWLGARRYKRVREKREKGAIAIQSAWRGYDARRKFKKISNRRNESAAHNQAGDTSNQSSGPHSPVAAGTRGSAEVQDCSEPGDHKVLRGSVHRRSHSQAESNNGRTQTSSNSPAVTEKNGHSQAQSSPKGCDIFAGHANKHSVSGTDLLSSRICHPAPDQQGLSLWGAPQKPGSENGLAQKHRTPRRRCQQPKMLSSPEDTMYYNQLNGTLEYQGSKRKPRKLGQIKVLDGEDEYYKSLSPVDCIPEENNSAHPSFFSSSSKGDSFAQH
The procedure, abridged:
as §1

The target in assay [5] is T5, MST2/STK3 (Homo sapiens, UniProt Q13188).
T5 construct: purchased Reaction Biology Corp
T5 sequence (Q13188 1-491): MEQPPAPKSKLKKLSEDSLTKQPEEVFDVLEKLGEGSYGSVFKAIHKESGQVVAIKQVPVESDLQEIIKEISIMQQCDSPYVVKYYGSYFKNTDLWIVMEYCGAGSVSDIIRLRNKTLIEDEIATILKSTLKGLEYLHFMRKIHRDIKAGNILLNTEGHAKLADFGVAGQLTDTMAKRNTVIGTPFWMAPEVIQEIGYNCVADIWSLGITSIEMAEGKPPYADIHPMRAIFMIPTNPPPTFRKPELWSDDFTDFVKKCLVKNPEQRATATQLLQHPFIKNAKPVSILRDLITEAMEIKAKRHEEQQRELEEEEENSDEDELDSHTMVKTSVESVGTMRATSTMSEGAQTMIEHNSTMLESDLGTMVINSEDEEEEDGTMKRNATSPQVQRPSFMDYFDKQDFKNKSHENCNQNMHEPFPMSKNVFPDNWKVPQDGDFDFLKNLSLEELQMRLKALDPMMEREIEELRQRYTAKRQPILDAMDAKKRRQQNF
The procedure, abridged:
as §1

[6] abbreviates: read-out: % Enzyme Activity (relative to DMSO controls) Run 1.
The mark [7] stands for this setting: read-out: % Enzyme Activity (relative to DMSO controls) Run 2.

The structures appear in SMILES notation. Read-outs that look alike come from different tables or passages of the source.

T2 sequence (P08069 31-1367): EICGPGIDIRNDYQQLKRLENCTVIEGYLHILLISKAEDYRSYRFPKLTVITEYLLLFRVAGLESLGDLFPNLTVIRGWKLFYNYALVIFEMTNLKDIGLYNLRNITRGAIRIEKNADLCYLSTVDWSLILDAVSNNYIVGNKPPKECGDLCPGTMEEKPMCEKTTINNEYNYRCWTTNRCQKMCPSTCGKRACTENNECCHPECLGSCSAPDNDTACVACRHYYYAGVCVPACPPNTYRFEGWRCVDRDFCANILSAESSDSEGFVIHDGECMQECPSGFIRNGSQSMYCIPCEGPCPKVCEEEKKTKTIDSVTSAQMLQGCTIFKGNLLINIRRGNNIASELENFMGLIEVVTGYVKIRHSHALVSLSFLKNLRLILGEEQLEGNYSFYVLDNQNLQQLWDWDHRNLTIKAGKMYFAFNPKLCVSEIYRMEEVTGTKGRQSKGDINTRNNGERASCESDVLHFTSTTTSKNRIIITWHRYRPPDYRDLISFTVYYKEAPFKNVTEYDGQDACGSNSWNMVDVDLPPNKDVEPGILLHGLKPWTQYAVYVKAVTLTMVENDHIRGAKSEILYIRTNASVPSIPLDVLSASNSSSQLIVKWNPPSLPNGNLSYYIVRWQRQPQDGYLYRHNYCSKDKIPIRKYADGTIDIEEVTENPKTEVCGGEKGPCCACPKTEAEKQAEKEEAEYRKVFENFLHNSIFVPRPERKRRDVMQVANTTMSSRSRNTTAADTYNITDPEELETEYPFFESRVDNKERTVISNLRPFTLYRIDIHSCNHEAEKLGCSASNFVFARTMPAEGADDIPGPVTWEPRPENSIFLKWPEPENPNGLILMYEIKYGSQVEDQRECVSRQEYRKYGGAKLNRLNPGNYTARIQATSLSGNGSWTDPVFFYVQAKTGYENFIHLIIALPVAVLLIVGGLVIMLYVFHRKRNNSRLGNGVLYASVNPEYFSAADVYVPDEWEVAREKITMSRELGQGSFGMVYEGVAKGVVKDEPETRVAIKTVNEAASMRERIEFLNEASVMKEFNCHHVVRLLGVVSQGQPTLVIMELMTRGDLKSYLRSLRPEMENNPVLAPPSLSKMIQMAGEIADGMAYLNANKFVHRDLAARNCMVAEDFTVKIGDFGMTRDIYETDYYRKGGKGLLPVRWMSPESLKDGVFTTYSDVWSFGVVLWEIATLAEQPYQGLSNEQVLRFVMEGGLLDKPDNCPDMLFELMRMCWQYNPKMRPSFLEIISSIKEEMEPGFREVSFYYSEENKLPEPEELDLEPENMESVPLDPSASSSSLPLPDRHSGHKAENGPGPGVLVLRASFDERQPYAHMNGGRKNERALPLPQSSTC
T1 sequence (Q9HC98 whole entry): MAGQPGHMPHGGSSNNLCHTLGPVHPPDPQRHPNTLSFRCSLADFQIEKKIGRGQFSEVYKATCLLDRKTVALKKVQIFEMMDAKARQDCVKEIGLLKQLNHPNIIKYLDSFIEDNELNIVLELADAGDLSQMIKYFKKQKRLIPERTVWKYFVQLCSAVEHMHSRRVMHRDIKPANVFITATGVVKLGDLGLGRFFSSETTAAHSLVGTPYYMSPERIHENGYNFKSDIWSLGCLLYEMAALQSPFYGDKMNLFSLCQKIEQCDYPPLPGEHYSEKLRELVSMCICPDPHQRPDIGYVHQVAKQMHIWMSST

On to `C=CC(=O)Nc1cccc(Nc2nc(Nc3ccc(OCCOC)c(F)c3)ncc2F)c1` [Compound 2], for which the inhibition at 3 µM was -5.69% in assay [1]; 15.6% in assay [2]; 27.3% in assay [3]; -2.59% in assay [4]; 10.1% in assay [5]. For the same compound, the remaining activity at 3 µM in assay [1] (setting [6]) was 106%; in assay [1] (setting [7]), 105%; in assay [2] (setting [6]), 82.8%; in assay [2] (setting [7]), 86%; in assay [3] (setting [6]) it was 73.4%; in assay [3] (setting [7]), 72%. Also, the remaining activity at 3 µM was 104% in assay [4] (setting [6]), 102% in assay [4] (setting [7]), 91.1% in assay [5] (setting [6]) and 88.6% in assay [5] (setting [7]).
